The values that follow come from patent US8236839B2, “Dual-acting antihypertensive agents” (Theravance, Inc., priority 2007, dated 2012).

In one test the target is T1, NEP enzyme (Homo sapiens, UniProt P08473).
T1 construct: purchased R&D Systems, Minneapolis, Minn; 1182-ZN
In words: In vitro enzyme inhibition assay at NEP. The class given is biochemical. As to conditions: fluorogenic peptide substrate; human or rat NEP not given; read-out: pIC50 for the NEP enzyme (converted). As for the experimental part: The inhibitory activities of compounds at human and rat NEP and human ACE were determined using in vitro assays as described below.
Rat NEP was prepared from the kidneys of adult Sprague Dawley rats. Whole kidneys were washed in cold PBS and brought up in ice-cold lysis buffer (1% Triton X-114, 150 mM NaCl, 50 mM Tris pH 7.5; Bordier (1981) J. Biol. Chem. 256:1604-1607) in a ratio of 5 mL of buffer for every gram of kidney. Samples were homogenized using a polytron hand held tissue grinder on ice. Homogenates were centrifuged at 1000×g in a swinging bucket rotor for 5 minutes at 3° C. The pellet was resuspended in 20 mL of ice cold lysis buffer and incubated on ice for 30 minutes. […] Protein concentrations were quantitated using a BCA detection system with BSA as a standard. […]
The assays were performed in 384-well white opaque plates at room temperature using the respective fluorogenic peptides at a concentration of 10 μM in assay buffer (50 mM Tris/HCl at 25° C., 100 mM NaCl, 0.01% Tween-20, 1 μM Zn, 0.025% BSA). […] The rat NEP enzyme preparation was used at a concentration that yielded quantitative proteolysis of 3 μM of Mca-RRL within 20 minutes at room temperature.
Assays were started by adding 25 μL of enzyme to 12.5 μL of test compound at 12 concentrations (10 μM to 20 pM). […] Plates were read on a fluorometer with excitation and emission wavelengths set to 320 nm and 405 nm, respectively. […]

The target of another test is T2, human AT1 receptor (Homo sapiens, UniProt P30556).
T2 construct: expressed in transfected cells; membrane preparation
T2 sequence (P30556 1-359): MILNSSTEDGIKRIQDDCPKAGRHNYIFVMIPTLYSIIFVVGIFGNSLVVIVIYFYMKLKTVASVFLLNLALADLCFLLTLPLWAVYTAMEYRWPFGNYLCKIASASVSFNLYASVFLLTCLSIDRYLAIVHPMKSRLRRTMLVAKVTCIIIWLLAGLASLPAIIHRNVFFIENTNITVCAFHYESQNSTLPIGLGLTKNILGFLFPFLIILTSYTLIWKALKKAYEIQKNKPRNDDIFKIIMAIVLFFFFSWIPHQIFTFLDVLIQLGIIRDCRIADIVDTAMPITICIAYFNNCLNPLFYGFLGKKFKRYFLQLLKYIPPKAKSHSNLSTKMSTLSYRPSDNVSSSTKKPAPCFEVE
As to the kind of experiment: AT1 radioligand binding assay. As to conditions: displacement of [Eu]AngII at 2 nM, membranes of CHO-K1 cells expressing human AT1 receptor; read-out: pKi at the AT1 receptor (converted). As for the experimental part: These in vitro assays were used to assess the ability of test compounds to bind to the AT1 and the AT2 receptors.
Chinese hamster ovary (CHO-K1) derived cell lines stably expressing the cloned human AT1 or AT2 receptors, respectively, were grown in HAM's-F12 medium supplemented with 10% fetal bovine serum, 10 μg/ml penicillin/streptomycin, and 500 μg/ml geneticin in a 5% CO2 humidified incubator at 37° C. AT2 receptor expressing cells were grown in the additional presence of 100 nM PD123,319 (AT2 antagonist). When cultures reached 80-95% confluence, the cells were washed thoroughly in PBS and lifted with 5 mM EDTA. Cells were pelleted by centrifugation and snap frozen in MeOH-dry ice and stored at −80° C. until further use.
For membrane preparation, cell pellets were resuspended in lysis buffer (25 mM Tris/HCl pH 7.5 at 4° C., 1 mM EDTA, and one tablet of Complete Protease Inhibitor Cocktail Tablets with 2 mM EDTA per 50 mL buffer (Roche cat. #1697498, Roche Molecular Biochemicals, Indianapolis, Ind.)) and homogenized using a tight-fitting Dounce glass homogenizer (10 strokes) on ice. The homogenate was centrifuged at 1000×g, the supernatant was collected and centrifuged at 20,000×g. […] Protein concentration of the membrane suspension was determined by the method described in Bradford (1976) Anal Biochem. 72:248-54. […]

T1 sequence (P08473 52-750 limits assumed): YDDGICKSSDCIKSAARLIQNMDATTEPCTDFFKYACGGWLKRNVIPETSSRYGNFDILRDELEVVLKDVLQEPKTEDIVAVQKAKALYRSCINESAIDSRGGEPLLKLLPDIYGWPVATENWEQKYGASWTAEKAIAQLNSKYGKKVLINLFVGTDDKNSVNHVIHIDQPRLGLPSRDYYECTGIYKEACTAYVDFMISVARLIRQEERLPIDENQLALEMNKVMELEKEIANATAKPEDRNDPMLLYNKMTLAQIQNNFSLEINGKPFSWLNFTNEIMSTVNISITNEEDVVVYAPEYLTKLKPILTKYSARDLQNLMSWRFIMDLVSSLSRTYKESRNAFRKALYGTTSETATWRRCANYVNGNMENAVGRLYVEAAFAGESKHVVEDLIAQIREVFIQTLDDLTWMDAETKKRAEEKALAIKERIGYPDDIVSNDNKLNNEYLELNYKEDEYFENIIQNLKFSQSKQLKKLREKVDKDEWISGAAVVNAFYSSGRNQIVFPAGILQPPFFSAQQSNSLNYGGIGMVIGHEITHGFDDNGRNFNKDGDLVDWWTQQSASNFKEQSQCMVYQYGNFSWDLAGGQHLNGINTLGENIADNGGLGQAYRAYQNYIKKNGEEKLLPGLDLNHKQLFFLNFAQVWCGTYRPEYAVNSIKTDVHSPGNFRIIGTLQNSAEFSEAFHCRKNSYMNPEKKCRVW

In the case of `CCCCCN(Cc1ccc(-c2ccccc2-c2nnn[nH]2)cc1)C(=O)N1C[C@@H](NC(=O)C(CC(C)C)C(=O)NO)C[C@H]1C(=O)O` (stereo partly drawn) [Example 2, (2S,4S)-4-(2-Hydroxycarbamoyl-4-methylpentanoylamino)-1-{pentyl[2′-(1H-tetrazol-5-yl)biphenyl-4-ylmethyl]carbamoyl}pyrrolidine-2-carboxylic Acid], the IC50 at NEP enzyme was no more than 100 nM. Further, the Ki on human AT1 receptor was less than 10 nM.
Take `CCCCCN(Cc1ccc(-c2ccccc2-c2nnn[nH]2)cc1)C(=O)[C@H](CC(=O)O)NC(=O)C(CS)CC(C)C` (stereo partly drawn) [Example 1, (S)-3-(2-Mercaptomethyl-4-methylpentanoylamino)-N-pentyl-N-[2′1-(1H-tetrazol-5-yl)biphenyl-4-ylmethyl]succinamic Acid]: the IC50 on NEP enzyme was no more than 100 nM. The Ki at human AT1 receptor was less than 10 nM.
